Experimental data taken from patent US20250325256A1, “LIPID PATCH” (SENSACH AB, priority 2021, published 2025).
Where two headings read alike, the source gives them in different places.

What was measured:
[1] = Reverse iontophoretic extraction into GMO cubic phase receptor matrix; type: in vitro ADME, pig; settings: for Cumulative amount Cubic at anode / Cumulative amount Cubic at cathode: in the cubic phase, 6 h, HEPES pH 7.4; for Cumulative amount Total at anode / Cumulative amount Total at cathode: sum of receptor solution after 6 hours and cubic phase
Method: Another objective of the present intention was to investigate the potency of a liquid crystalline cubic phase formed by GMO and water to serve as a matrix for iontophoresis. In order to keep experimental conditions as similar as possible to the previously described experiments, the same horizontal side-by-side cells were used. A fully swollen cubic phase (Pn3m space group) was added into a custom-made sample holder ensuring the formulation was in contact with the skin. In order to prevent contact between the cubic phase and the electrodes, 2 mL of HEPES buffer (pH 7.4, 60 mM NaCl) was added to each receptor compartment. Sampling was performed by withdrawing 1 ml of receptor solution and replacing it with a 1 mL of empty buffer every hour for 6 hours. After the last sampling, the experiment was terminated, and the cubic phase was collected for further analysis. […] It is important to point out that partitioning of Trp and Kyn into cubic bilayer was not taken into account during the calculation of the extracted amounts of respective endogenous substance. The amounts were determined based on the volume of the receptor matrix (100 μL).
The samples for reverse iontophoretic extraction experiments consisting of a liquid crystalline cubic phase were prepared by weighing 0.1 g of glycerol monooleate (GMO) in a 1.8 mL glass vials. GMO was then melted at 45° C. by immersing the vials in the water bath and centrifuged at 1000 g for 5 minutes. The vials were then placed in the freezer (−20° C.) for 30 minutes in order for GMO to crystalize. After crystallization vials were taken out of the freezer and 0.5 g of Milli-Q water was added to each vial, ensuring the excess of added water. […] Prior to use, each vial was examined between cross polarizers for any sign of anisotropy, which would imply that sample had not yet reached equilibrium. […]

[2] = Post iontophoretic passive extraction (further 18 hours); type: in vitro ADME, pig; settings: for Normalized cumulative amount at anode / Normalized cumulative amount at cathode: mean ± SEM
From the text: Therefore, while enhancing extraction at the cathode, electroosmosis (at pH>skin pI) retards the extraction of anions and zwitterions towards the anode as they have to move against the solvent flow. This may result in a build-up of zwitterions moving towards the anode and against the electroosmotic flow. Therefore, the skin membrane that faces the anodal compartment could potentially contain higher amounts of zwitterionic compounds compared to the skin membrane facing the cathodal compartment. In order to further investigate the effect of electroosmosis, the post iontophoretic passive extraction experiments were performed for another 18 hours.
The effect of receptor solution pH on the cumulative amount of endogenous substances extracted from the skin membrane during post iontophoretic passive extraction as well as from passive control experiments is shown in FIG. 16. […] Moreover, in post iontophoretic experiments, there was an increase in the amount of endogenous substances passively extracted into anode compartment with increased pH. In order to determine the amount of endogenous substances obtained during the post iontophoretic step, the cumulative amount of endogenous substances extracted during 6 hours of reverse iontophoresis were subtracted from the total cumulative amount.
In extraction experiments preformed without a cubic phase, sampling was performed every hour for six hours by withdrawing 1 mL from the receptor compartments and replacing it with 1 mL of neat buffer solution. After the final sampling the current was stopped and the donor compartment was emptied. The post iontophoretic passive extraction from the skin membranes was allowed to continue for another 18 hours in order to investigate the effect of electroosmosis, since the skin membrane was the only source of endogenous substance after removal of donor solution. In total 7 samplings were performed over 24 hours i.e., 6 during the current passage and 1 from the post iontophoretic passive extraction. In case of reverse iontophoretic extraction into the cubic phase, the sampling was performed in the same way i.e., every hour for 6 hours 1 mL of receptor solution was replaced with a 1 mL of a neat buffer. However, in contrast to previous procedure, the experiment was terminated after 6 hours of current passage. The cubic phase was collected into 1.7 mL Eppendorf tube ensuring that as little residue as possible was left on the skin surface. The extraction of endogenous substances from the cubic phase was performed as follows: 1 mL of Milli-Q water was added to the cubic phase and left on shaker for 1 hour. After that, each Eppendorf tube was vortex for 1 minute and the final aqueous solution was collected with a syringe. Small part of a cubic phase was taken for SAXD measurements in order to investigate any potential changes in the phase after reverse iontophoretic experiment.

[3] = for Kcub/w / log Kcub/w: fully swollen Pn3m cubic phase (GMO/water) vs water; for bilayer/water partitioning, Kcub/w / bilayer/water partitioning, log Kcub/w: fully swollen Pn3m cubic phase (GMO/water), calculated; for partitioning into the cubic lipid bilayer compared to kynurenine: fully swollen GMO cubic phase
Method: Four concentrations of Trp and Kyn in a range 0.125 mM to 1 mM, corresponding to lipid:Trp(Kyn) ratio in the range 7200:1-900:1, were prepared in Milli-Q water in order to investigate the effect of concertation on the partitioning. The fully swollen cubic phases (˜0.25 g) were prepared by mixing the appropriate amount of GMO with an excess of Milli-Q water (1:1 weight ratio) in a 1.7 mL glass vials and left to equilibrate for 7 days. When samples were equilibrated (typically within 2 days a glass-clear and non-floating cubic phase was formed), each vial was checked between cross polarizers to ensure that no birefringence could be observed. The excess of water was then removed and 500 μL of solution with different concentrations of Trp/Kyn (molar ratio 1:1) were added to each vial. Final samples were allowed to equilibrate with respect to Trp and Kyn partitioning between the lipid bilayer and the aqueous phase. First sampling was performed after one week of equilibration by withdrawing 50 μL of the aqueous phase. Second sampling was performed in identical manner after 2 weeks of equilibration to investigate the time aspect on the partitioning. All samples collected during the partition study were diluted to a final volume 500 μL with Milli-Q water and filtered with a 0.2 μm syringe filters (13 mm PTFE membrane, VWR International, USA) prior to the HPLC-UV analysis. All partition experiments were performed in triplicates.
The lipid bilayer/water partition coefficient, Kbl/w, may be defined as
where [X] is the concentration of an endogenous substance of interest (e.g., Trp and Kyn) in the bilayer and in water. While concertation of a substance in the aqueous phase can easily be determined by a suitable analytical procedure (e.g., HPLC, LC-MS etc.), determination of the concertation in the bilayer requires two assumptions. […] The second assumption is that the concentration of an endogenous substance in the water channels of the cubic phase is the same as in the water bulk phase, which is based on the equilibrium between chemical potentials of endogenous substances in water channels and in the bulk phase. Thus, the partition coefficient may be calculated by rewriting the Eq. 2 as follows
where Vw is the volume of a water solution containing endogenous substance X added to the cubic phase, [X]0w is the initial concentration of an endogenous substance, [X]w is the concentration of endogenous substance in the water phase after equilibration, Vbl is the volume of GMO, Vcube is the volume of water that was added to GMO to form a cubic phase.
The quantification of Trp and Kyn was performed by HPLC-UV system (Agilent 1100 Series, Germany). The chromatographic separation of Trp and Kyn was carried out on 250 mm×4.6 mm Kromasil C18 column with particle size of 5 μm (AkzoNobel, Bellefonte, USA). Endogenous substances were separated by gradient elution using mobile phase A consisting of 10 mM NaH2PO4 (pH 2.8) and mobile phase B consisting of 100% MeOH at 0.9 mL/min flow rate and 40° C. column temperature. […] The total run time was 17 minutes and injection volume was set to 20 μL. Detection of Trp and Kyn was performed at their UV absorbance maxima, at 280 nm and 360 nm, respectively. Stock solutions of 10 mM of Trp and Kyn for calibration curve were prepared in Milli-Q water and kept in the freezer (−20° C.) for no longer than one day after preparation. Calibration standards for calibration curve were analyzed in the range 0.78 μM to 100 μM (R^2>0.999) the same day as the experimental samples.

[4] = type: in vitro ADME, pig
Method: Therefore, identical reverse iontophoretic extraction experiments were performed with an empty donor solution (i.e., neat PBS buffer pH 7.4) and the results are shown in FIG. 14. As in the previous section, Trp was extracted towards both receptor compartments, however, the main direction of extraction was towards the cathode. […] This is most likely due to the fact that the amount of extracted Kyn was below the limit of detection by means of HPLC-UV. Therefore, a more sensitive analysis technique is required for quantification of endogenously present Kyn. The cumulative amount of extracted Trp to the cathode was 0.44±0.06 nmol/cm^2 and the anode 0.22±0.05 nmol/cm^2.
Control reverse iontophoretic extraction experiments were conducted in order to estimate the levels of endogenous Trp and, potentially Kyn. It is known that Trp is present in the SC as a part of natural moisturizing factor (NMF), which primarily consists of free amino acids and their derivatives55,56. These experiments were performed using the identical experimental setup with a neat PBS buffer (pH 7.4) in the donor compartment (i.e., no Trp or Kyn being present) and 10 mM HEPES with 60 mM NaCl as background electrolyte (pH 7.4). Sampling was performed once an hour for 6 hours by withdrawing 1 mL of receptor solution and replacing it with a 1 mL of fresh HEPES buffer).

[5] = pH 4.0, 24 h amount minus first 6 hours
[6] = pH 7.4, 24 h amount minus first 6 hours
[7] = pH 9.0, 24 h amount minus first 6 hours
[8] = pH 4.0, from normalized cumulative amounts
[9] = pH 7.4, from normalized cumulative amounts
[10] = pH 9.0, from normalized cumulative amounts

| SMILES | Cumulative amount Cubic at anode [1] [nmol/cm^2] | Cumulative amount Cubic at cathode [1] [nmol/cm^2] | Cumulative amount Total at anode [1] [nmol/cm^2] | Cumulative amount Total at cathode [1] [nmol/cm^2] | Normalized cumulative amount at anode [2, 5] [nmol/cm^2] | Normalized cumulative amount at cathode [2, 5] [nmol/cm^2] | Normalized cumulative amount at anode [2, 6] [nmol/cm^2] | Normalized cumulative amount at cathode [2, 6] [nmol/cm^2] | Normalized cumulative amount at anode [2, 7] [nmol/cm^2] | Normalized cumulative amount at cathode [2, 7] [nmol/cm^2] | Kcub/w [3] | log Kcub/w [3] | bilayer/water partitioning, Kcub/w [3] | bilayer/water partitioning, log Kcub/w [3] | also measured |
| --- | --- | --- | --- | --- | --- | --- | --- | --- | --- | --- | --- | --- | --- | --- | --- |
| Nc1ccccc1C(=O)C[C@H](N)C(=O)O [Kyn, L-kynurenine] | 0.28 ± 0.28 | 5.62 ± 0.45 | 0.28 ± 0.28 | 7.53 ± 0.83 | 6.56 ± 2.40 | 5.31 ± 1.35 | 14.35 ± 2.33 | 2.12 ± 8.37 | 19.90 ± 2.45 | 10.29 ± 2.07 | 1.3 | 0.1 | 1.5 | 0.2 | detection of endogenous Kyn [4]: no Kyn was detected |
| N[C@@H](Cc1c[nH]c2ccccc12)C(=O)O [Trp, L-tryptophan] | 0.68 ± 0.05 | 5.29 ± 0.48 | 0.68 ± 0.05 | 6.57 ± 1.00 | 6.22 ± 1.49 | 5.36 ± 1.32 | 14.13 ± 2.25 | 7.38 ± 2.57 | 17.52 ± 1.58 | 9.77 ± 1.95 | 2.2 | 0.3 | 3.0 | 0.5 | Ratio Trp/Kyn at cathode cubic ([1]; from amounts in the cubic phase): 0.94 ± 0.04; Ratio Trp/Kyn at cathode total ([1]; from the total cumulative amount): 0.86 ± 0.05; Ratio (Trp/Kyn) at anode [2, 8]: 1.19 ± 0.17; Ratio (Trp/Kyn) at cathode [2, 8]: 1.05 ± 0.03; Ratio (Trp/Kyn) at anode [2, 9]: 0.99 ± 0.02; Ratio (Trp/Kyn) at cathode [2, 9]: 0.86 ± 0.08; Ratio (Trp/Kyn) at anode [2, 10]: 0.89 ± 0.02; Ratio (Trp/Kyn) at cathode [2, 10]: 0.95 ± 0.02; partitioning into the cubic lipid bilayer compared to kynurenine [3]: twice as high; partitioning into the cubic lipid bilayer compared to kynurenine ([3]; listed as tryptophan): approximately twice as high; contribution of endogenous Trp to the total cumulative amount of extracted Trp (at the cathode) ([4]; pig, 6 h, pH 7.4): approximately 6%; cumulative amount of extracted endogenous Trp to the anode ([4]; pig, 6 h, pH 7.4): 0.22±0.05 nmol/cm^2; cumulative amount of extracted endogenous Trp to the cathode ([4]; pig, 6 h, pH 7.4): 0.44±0.06 nmol/cm^2 |
